pIC50: −log10 of the molar value.
Assays:
[1] = system: KATO III stomach cancer cell line; test: cells; conditions: Homo sapiens, 72 h
Description: Antiproliferative activity against FGFR2 amplified human KATO III cells measured after 3 days by MTT assay

[2] = target: Fibroblast growth factor receptor 2 (Homo sapiens, UniProt P21802)
Sequence of Fibroblast growth factor receptor 2 (P21802 whole entry): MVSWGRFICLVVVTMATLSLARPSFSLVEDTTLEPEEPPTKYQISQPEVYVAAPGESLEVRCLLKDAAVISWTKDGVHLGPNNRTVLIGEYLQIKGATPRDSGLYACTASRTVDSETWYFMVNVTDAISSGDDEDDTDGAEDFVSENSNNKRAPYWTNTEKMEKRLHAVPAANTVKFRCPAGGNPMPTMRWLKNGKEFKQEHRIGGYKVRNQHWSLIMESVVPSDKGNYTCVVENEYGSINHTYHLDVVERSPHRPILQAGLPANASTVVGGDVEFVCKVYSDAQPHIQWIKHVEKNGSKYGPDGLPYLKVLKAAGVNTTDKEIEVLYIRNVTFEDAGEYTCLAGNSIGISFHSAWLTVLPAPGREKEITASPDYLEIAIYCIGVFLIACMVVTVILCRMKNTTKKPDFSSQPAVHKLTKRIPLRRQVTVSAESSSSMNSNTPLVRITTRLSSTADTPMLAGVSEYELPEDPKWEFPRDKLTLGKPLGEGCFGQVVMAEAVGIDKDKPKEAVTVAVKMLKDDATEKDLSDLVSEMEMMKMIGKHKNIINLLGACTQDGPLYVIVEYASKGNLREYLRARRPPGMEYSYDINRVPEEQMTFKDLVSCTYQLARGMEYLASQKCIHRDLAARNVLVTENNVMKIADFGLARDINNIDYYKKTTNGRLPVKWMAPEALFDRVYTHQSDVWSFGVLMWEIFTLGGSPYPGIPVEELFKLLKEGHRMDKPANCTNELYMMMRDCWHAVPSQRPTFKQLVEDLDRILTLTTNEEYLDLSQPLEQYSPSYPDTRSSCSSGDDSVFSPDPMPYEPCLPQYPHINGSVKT
Description: Inhibition of FGFR2 (unknown origin)

Compound | pIC50 [1] | pIC50 [2]
Cc1ncsc1-c1ccc(CNC(=O)[C@@H]2C[C@@H](O)CN2C(=O)[C@@H](NC(=O)CCCCC(=O)NCCn2cc(/C=C/c3n[nH]c4ccc(O[C@H](C)c5c(Cl)cncc5Cl)cc34)cn2)C(C)(C)C)cc1 | < 7.30 | –
Cc1ncsc1-c1ccc(CNC(=O)[C@@H]2C[C@@H](O)CN2C(=O)[C@@H](NC(=O)CCCC(=O)NCCn2cc(/C=C/c3n[nH]c4ccc(O[C@H](C)c5c(Cl)cncc5Cl)cc34)cn2)C(C)(C)C)cc1 | < 7.30 | –
C[C@@H](Oc1ccc2[nH]nc(/C=C/c3cnn(CCNC(=O)CCCCNc4cccc5c4C(=O)N(C4CCC(=O)NC4=O)C5=O)c3)c2c1)c1c(Cl)cncc1Cl (stereo not given in full) | 7.76 | –
C[C@@H](Oc1ccc2[nH]nc(/C=C/c3cnn(CCNC(=O)CNc4ccc5c(c4)C(=O)N(C4CCC(=O)NC4=O)C5=O)c3)c2c1)c1c(Cl)cncc1Cl (stereo not given in full) | 7.33 | –
C[C@@H](Oc1ccc2[nH]nc(/C=C/c3cnn(CCNC(=O)/C=C/C(=O)c4ccc(Cl)cc4)c3)c2c1)c1c(Cl)cncc1Cl | < 7.30 | –
C[C@@H](Oc1ccc2[nH]nc(/C=C/c3cnn(CCNC(=O)CCCNc4ccc5c(c4)C(=O)N(C4CCC(=O)NC4=O)C5=O)c3)c2c1)c1c(Cl)cncc1Cl (stereo not given in full) | 7.98 | –
C[C@@H](Oc1ccc2[nH]nc(/C=C/c3cnn(CCNC(=O)/C=C/c4cc(C(F)(F)F)cc(C(F)(F)F)c4)c3)c2c1)c1c(Cl)cncc1Cl | < 7.30 | –
C[C@@H](Oc1ccc2[nH]nc(/C=C/c3cnn(CCNC(=O)/C=C/C(=O)c4ccccc4)c3)c2c1)c1c(Cl)cncc1Cl | 7.81 | –
C[C@@H](Oc1ccc2[nH]nc(/C=C/c3cnn(CCN)c3)c2c1)c1c(Cl)cncc1Cl | – | 8.68
COc1ccc(C(=O)/C=C/C(=O)NCCn2cc(/C=C/c3n[nH]c4ccc(O[C@H](C)c5c(Cl)cncc5Cl)cc34)cn2)cc1 | 7.99 | –
C[C@@H](Oc1ccc2[nH]nc(/C=C/c3cnn(CCNC(=O)/C=C/C(=O)c4ccc(Br)cc4)c3)c2c1)c1c(Cl)cncc1Cl | 7.33 | –
Cc1ncsc1-c1ccc(CNC(=O)[C@@H]2C[C@@H](O)CN2C(=O)[C@@H](NC(=O)CCCCCC(=O)NCCn2cc(/C=C/c3n[nH]c4ccc(O[C@H](C)c5c(Cl)cncc5Cl)cc34)cn2)C(C)(C)C)cc1 | < 7.30 | –
C[C@@H](Oc1ccc2[nH]nc(/C=C/c3cnn(CCNC(=O)CCCNc4cccc5c4C(=O)N(C4CCC(=O)NC4=O)C5=O)c3)c2c1)c1c(Cl)cncc1Cl (stereo not given in full) | 8.09 | –
C[C@@H](Oc1ccc2[nH]nc(/C=C/c3cnn(CCNC(=O)CCCCCNc4cccc5c4C(=O)N(C4CCC(=O)NC4=O)C5=O)c3)c2c1)c1c(Cl)cncc1Cl (stereo not given in full) | 8.31 | –
C[C@@H](Oc1ccc2[nH]nc(/C=C/c3cnn(CCNC(=O)CCNc4cccc5c4C(=O)N(C4CCC(=O)NC4=O)C5=O)c3)c2c1)c1c(Cl)cncc1Cl (stereo not given in full) | 8.38 | –
C[C@@H](Oc1ccc2[nH]nc(/C=C/c3cnn(CCNC(=O)CCNc4ccc5c(c4)C(=O)N(C4CCC(=O)NC4=O)C5=O)c3)c2c1)c1c(Cl)cncc1Cl (stereo not given in full) | 7.83 | –
C[C@@H](Oc1ccc2[nH]nc(/C=C/c3cnn(CCNC(=O)/C=C/c4cccc(C(F)(F)F)c4)c3)c2c1)c1c(Cl)cncc1Cl | 7.41 | –
C[C@@H](Oc1ccc2[nH]nc(/C=C/c3cnn(CCNc4cccc5c4C(=O)N(C4CCC(=O)NC4=O)C5=O)c3)c2c1)c1c(Cl)cncc1Cl (stereo not given in full) | 8.17 | –
C[C@@H](Oc1ccc2[nH]nc(/C=C/c3cnn(CCNc4ccc5c(c4)C(=O)N(C4CCC(=O)NC4=O)C5=O)c3)c2c1)c1c(Cl)cncc1Cl (stereo not given in full) | 8.14 | –
C[C@@H](Oc1ccc2[nH]nc(/C=C/c3cnn(CCNC(=O)/C=C/c4ccc(C(F)(F)F)cc4)c3)c2c1)c1c(Cl)cncc1Cl | 7.38 | –
Cc1ncsc1-c1ccc(CNC(=O)[C@@H]2C[C@@H](O)CN2C(=O)[C@@H](NC(=O)CCC(=O)NCCn2cc(/C=C/c3n[nH]c4ccc(O[C@H](C)c5c(Cl)cncc5Cl)cc34)cn2)C(C)(C)C)cc1 | < 7.30 | –
C[C@@H](Oc1ccc2[nH]nc(/C=C/c3cnn(CCNC(=O)CNc4cccc5c4C(=O)N(C4CCC(=O)NC4=O)C5=O)c3)c2c1)c1c(Cl)cncc1Cl (stereo not given in full) | 7.65 | –
Cc1ncsc1-c1ccc(CNC(=O)[C@@H]2C[C@@H](O)CN2C(=O)[C@@H](NC(=O)CCC(=O)NCn2cc(/C=C/c3n[nH]c4ccc(O[C@H](C)c5c(Cl)cncc5Cl)cc34)cn2)C(C)(C)C)cc1 | < 7.30 | –
C[C@@H](Oc1ccc2[nH]nc(/C=C/c3cnn(CCNC(=O)/C=C/C(=O)c4ccc(F)cc4)c3)c2c1)c1c(Cl)cncc1Cl | 7.92 | –
C[C@@H](Oc1ccc2[nH]nc(/C=C/c3cnn(CCNC(=O)CCCCNc4ccc5c(c4)C(=O)N(C4CCC(=O)NC4=O)C5=O)c3)c2c1)c1c(Cl)cncc1Cl (stereo not given in full) | 7.70 | –

Source: ChEMBL document CHEMBL5579838, “Design, synthesis and antitumor activity of a novel FGFR2-selective degrader to overcome resistance of the FGFR2V564F gatekeeper mutation based on a pan-FGFR inhibitor” (Eur J Med Chem, 2024)
